According to ChEMBL document CHEMBL5380777, “Efficacy, Mechanism, and Structure-Activity Relationship of 6-Methoxy Benzofuran Derivatives as a Useful Tool for Senile Osteoporosis” (J Med Chem, 2023):
The source made the active and inactive calls. The rule behind the calls is not given here.

Experiments:
[1] = Toxicity in 2.5 months old SAMP-6 rapid aging mouse model assessed as change in body weight administered at 30 mg/kg/day, IG continuously for 3 months; assay type: organism-based; details: in vivo, po, 2190 h
Mus musculus [2] = experiment: Anti osteoporosis in 16 months old C57 mouse assessed as increase in bone mass administered at 30 mg/kg/day, IG continuously for 4 months by micro CT analysis relative to young control group; assay type: functional, organism-based
[3] = Toxicity in 2.5 months old SAMP-6 rapid aging mouse model assessed as change in serum AST level administered at 30 mg/kg/day, IG continuously for 3 months; assay type: organism-based; details: in vivo, po, 2190 h
[4] = Toxicity in 2.5 months old SAMP-6 rapid aging mouse model assessed as change in ALP level administered at 30 mg/kg/day, IG continuously for 3 months; assay type: organism-based; details: in vivo, po, 2190 h
[5] = Toxicity in 2.5 months old SAMP-6 rapid aging mouse model assessed as change in serum AST level administered at 30 mg/kg/day, IG continuously for 3 months in presence of ALN; assay type: organism-based; details: in vivo, po, 2190 h
[6] = Toxicity in 16 months old C57 mouse assessed as change in cholesterol level administered at 30 mg/kg/day, IG for 4 months for every 6 days; assay type: organism-based; details: in vivo, po, 2920 h
Mus musculus [7] = experiment: Anti osteoporosis in 16 months old C57 mouse assessed as reconstruction of bone microstructure administered at 30 mg/kg/day, IG continuously for 4 months by micro CT analysis relative to young control group; assay type: functional, organism-based
Danio rerio = organism: Danio rerio; experiment: Anti osteoporosis activity in prednisone induced wildtype 3 days post-fertilization AB zebrafish osteoporosis model assessed as increase in bone fluorescence intensity (RVB = 13620 +/- 1692); assay type: functional
Osteoblast [8] = experiment: Upregulation of transcription factor MYC expression in 16 months old C57 mouse osteoblast by scRNA-seq analysis; assay type: functional, cell-based
MC3T3-E1 = experiment: Induction of ALP activity in mouse MC3T3-E1 cells in osteogenic differentiation culture at 1 uM measured on day 7; assay type: functional, cell-based; details: time 7.0 day
Osteoblast [9] = experiment: Upregulation of transcription factor H1F0 expression in 16 months old C57 mouse osteoblast by scRNA-seq analysis; assay type: functional, cell-based
Osteoblast [10] = experiment: Regulation of osteogenesis in 16 months old C57 mouse osteoblast endoplasmic reticulum assessed as increase in Hsp90ab1 gene by scRNA-seq analysis; assay type: functional, cell-based
Osteocyte = experiment: Upregulation of BMP-2 expression in 16 months old C57 mouse osteocytes by scRNA-seq analysis; assay type: functional, cell-based
Mus musculus [11] = experiment: Anti osteoporosis in 16 months old C57 mouse assessed as increase in bone mass administered at 30 mg/kg/day, IG continuously for 2 months by micro CT analysis relative to aged control group; assay type: functional, organism-based
Mus musculus [12] = experiment: Anti osteoporosis in 16 months old C57 mouse assessed as fold increase in chondrocytes level in femur administered at 30 mg/kg/day, IG continuously for 4 months by scRNA-seq analysis relative to control; assay type: functional; details: 2920 h
Mus musculus [13] = experiment: Anti osteoporosis in 16 months old C57 mouse assessed as dendritic cell level in femur administered at 30 mg/kg/day, IG continuously for 4 months by scRNA-seq analysis (reference value: 1.34%); assay type: functional; details: 2920 h
[14] = Toxicity in 16 months old C57 mouse assessed as change in triglyceride level administered at 30 mg/kg/day, IG continuously for 4 months; assay type: organism-based; details: in vivo, po, 2920 h
Osteoblast [15] = experiment: Regulation of osteogenesis in 16 months old C57 mouse osteoblast endoplasmic reticulum assessed as increase in Hspa8 gene by scRNA-seq analysis; assay type: functional, cell-based
[16] = Toxicity in 2.5 months old SAMP-6 rapid aging mouse model assessed as change in serum ALT level administered at 30 mg/kg/day, IG continuously for 3 months; assay type: organism-based; details: in vivo, po, 2190 h
Mus musculus [17] = experiment: Anti osteoporosis in 16 months old C57 mouse assessed as osteoblast level in femur administered at 30 mg/kg/day, IG continuously for 4 months by scRNA-seq analysis (reference value: 5.05%); assay type: functional; details: 2920 h
[18] = Toxicity in 16 months old C57 mouse assessed as change in blood glucose level administered at 30 mg/kg/day, IG continuously for 4 months; assay type: organism-based; details: in vivo, po, 2920 h
Osteoblast [19] = experiment: Upregulation of transcription factor TAX1BP1 expression in 16 months old C57 mouse osteoblast by scRNA-seq analysis; assay type: functional, cell-based
Mus musculus [20] = experiment: Anti osteoporosis in 2.5 months old SAMP-6 rapid aging mouse model assessed as increase in number of osteoblast per square millimeter of the trabecular bone surface administered at 30 mg/kg/day, IG continuously for 3 months […]; assay type: functional, organism-based
Mus musculus [21] = experiment: Anti osteoporosis in 16 months old C57 mouse assessed as GrP level in femur administered at 30 mg/kg/day, IG continuously for 4 months by scRNA-seq analysis (reference value: 12.75%); assay type: functional; details: 2920 h
Mus musculus [22] = experiment: Anti osteoporosis in 16 months old C57 mouse assessed as granulocyte level in femur administered at 30 mg/kg/day, IG continuously for 4 months by scRNA-seq analysis (reference value: 28.33%); assay type: functional; details: 2920 h
Osteoblast [23] = experiment: Regulation of osteogenesis in 16 months old C57 mouse osteoblast endoplasmic reticulum assessed as increase in Hsp90aa1 gene by scRNA-seq analysis; assay type: functional, cell-based
Mus musculus [24] = experiment: Anti osteoporosis in 16 months old C57 mouse assessed as increase in bone mass administered at 30 mg/kg/day, IG continuously for 4 months by micro CT analysis relative to aged control group; assay type: functional, organism-based
Mus musculus [25] = experiment: Anti osteoporosis in 2.5 months old SAMP-6 rapid aging mouse model assessed as upregulation of serum BMP2 administered at 30 mg/kg/day, IG in presence of ALN continuously for 3 months […]; assay type: functional, organism-based
Mus musculus [26] = experiment: Anti osteoporosis in 16 months old C57 mouse assessed as increase in bone mass administered at 30 mg/kg/day, IG continuously for 2 months by micro CT analysis relative to young control group; assay type: functional, organism-based
[27] = Toxicity in 2.5 months old SAMP-6 rapid aging mouse model assessed as morphological change in kidney administered at 30 mg/kg/day, IG continuously for 3 months by hematoxylin and eosin staining analysis; assay type: organism-based; details: in vivo, po, 2190 h
[28] = Toxicity in 2.5 months old SAMP-6 rapid aging mouse model assessed as morphological change in kidney administered at 30 mg/kg/day, IG continuously for 3 months in presence of ALN by hematoxylin and eosin staining analysis; assay type: organism-based; details: in vivo, po, 2190 h
[29] = Toxicity in 2.5 months old SAMP-6 rapid aging mouse model assessed as change in creatinine level administered at 30 mg/kg/day, IG continuously for 3 months; assay type: organism-based; details: in vivo, po, 2190 h
Mus musculus [30] = experiment: Anti osteoporosis in 16 months old C57 mouse assessed as T cell level in femur administered at 30 mg/kg/day, IG continuously for 4 months by scRNA-seq analysis (reference value: 10.54%); assay type: functional; details: 2920 h
[31] = Toxicity in 16 months old C57 mouse assessed as change in albumin level administered at 30 mg/kg/day, IG continuously for 4 months; assay type: organism-based; details: in vivo, po, 2920 h
Mus musculus [32] = experiment: Anti osteoporosis in 16 months old C57 mouse assessed as chondroblast level in femur administered at 30 mg/kg/day, IG continuously for 4 months by scRNA-seq analysis (reference value: 2.49%); assay type: functional; details: 2920 h
Osteoblast [33] = experiment: Regulation of osteogenesis in 16 months old C57 mouse osteoblast endoplasmic reticulum assessed as increase in Hsph1 gene by scRNA-seq analysis; assay type: functional, cell-based

Question: What does the source list for `COc1ccc2cc(C(=O)NCCN(C)C)oc2c1.CS(=O)(=O)O`?
Answer: Activity [1]: Non-Toxic; Activity (Mus musculus [2]): Active; Activity [3]: Non-Toxic; Activity [4]: Non-Toxic; Activity [5]: Non-Toxic; Activity [6]: Non-Toxic; Activity (Mus musculus [7]): Active; Flu intensity (Danio rerio): 19181; Activity (Osteoblast [8]): Active; Activity (MC3T3-E1): Active; Activity (Osteoblast [9]): Active; Activity (Osteoblast [10]): Active; Activity (Osteocyte): Active; Activity (Mus musculus [11]): inactive; fold change (FC) (Mus musculus [12]): 2; Activity (Mus musculus [13]): 0.68%; Activity [14]: Non-Toxic; Activity (Osteoblast [15]): Active; Activity [16]: Non-Toxic; Activity (Mus musculus [17]): 15.03%; Activity [18]: Non-Toxic; Activity (Osteoblast [19]): Active; Activity (Mus musculus [20]): Active; Activity (Mus musculus [21]): 6.51%; Activity (Mus musculus [22]): 34.01%; Activity (Osteoblast [23]): Active; Activity (Mus musculus [24]): Active; Activity (Mus musculus [25]): Active; Activity (Mus musculus [26]): inactive; Activity [27]: Non-Toxic; Activity [28]: Non-Toxic; Activity [29]: Non-Toxic; Activity (Mus musculus [30]): 8.96%; Activity [31]: Non-Toxic; Activity (Mus musculus [32]): 3.77%; Activity (Osteoblast [33]): Active
